Experimental data: patent US20240058347A1, “DOSAGES FOR HDAC TREATMENT WITH REDUCED SIDE EFFECTS” (VIRACTA THERAPEUTICS, INC., priority 2019, published 2024)

Tests used:
[1] = target: HDAC1 (Homo sapiens, UniProt Q13547); assay: in vitro HDAC inhibition assay (fluorescence), HDAC1; format: biochemical
Experimental: (§1) Briefly, all of the compounds are dissolved in DMSO. A series of dilutions of the compounds were prepared with 10% DMSO in HDAC assay buffer and 5 μl of the dilution was added to a 50 μl reaction so that the final concentration of DMSO is 1% in all of reactions. The compounds were pre-incubated in duplicate at RT for 1 hour in a mixture containing HDAC assay buffer, 5 μg BSA, HDAC enzyme (see Table 7) and a the particular HDACi. After 1 hour, the enzymatic reactions were initiated by the addition of HDAC substrate (BPS Bioscience) to a final concentration of 10 μM or 2 μM. The enzymatic reaction proceeded for 30 minutes at 37° C.
(§2) HDAC activity assays were performed in duplicates at each concentration. The fluorescent intensity data were analyzed using the computer software, Graphpad Prism. In the absence of the compound, the fluorescent intensity (Ft) in each data set was defined as 100% activity. In the absence of HDAC, the fluorescent intensity (Fb) in each data set was defined as 0% activity. The percent activity in the presence of each compound was calculated according to the following equation: % activity=(F−Fb)/(Ft−Fb), where F=the fluorescent intensity in the presence of the compound. […]

[2] = target: HDAC4 (Homo sapiens, UniProt P56524); assay: in vitro HDAC inhibition assay (fluorescence), HDAC4; format: biochemical; settings: HDAC4
Experimental: as §1, §2

[3] = target: HDAC3/NCOR2 (Homo sapiens, UniProt O15379); assay: biochemical
Experimental: as §1
(§3) HDAC activity assays were performed in duplicates at each concentration. The fluorescent intensity data were analyzed using the computer software, Graphpad Prism. In the absence of the compound, the fluorescent intensity (Ft) in each data set was defined as 100% activity. In the absence of HDAC, the fluorescent intensity (Fb) in each data set was defined as 0% activity. The percent activity in the presence of each compound was calculated according to the following equation: % activity=(F−Fb)/(Ft−Fb), where F=the fluorescent intensity in the presence of the compound.
(§4) The values of % activity versus a series of compound concentrations were then plotted using non-linear regression analysis of Sigmoidal dose-response curve generated with the equation Y=B+(T−B)/1+10^((Log C50−X)×Hill Slope), where Y=percent activity, B=minimum percent activity, T=maximum percent activity, X=logarithm of compound and Hill Slope=slope factor or Hill coefficient. The IC50 value was determined by the concentration causing a half-maximal percent activity.

[4] = target: T1, HDAC8 (Homo sapiens, UniProt Q9BY41); assay: biochemical
T1 sequence (Q9BY41 1-377): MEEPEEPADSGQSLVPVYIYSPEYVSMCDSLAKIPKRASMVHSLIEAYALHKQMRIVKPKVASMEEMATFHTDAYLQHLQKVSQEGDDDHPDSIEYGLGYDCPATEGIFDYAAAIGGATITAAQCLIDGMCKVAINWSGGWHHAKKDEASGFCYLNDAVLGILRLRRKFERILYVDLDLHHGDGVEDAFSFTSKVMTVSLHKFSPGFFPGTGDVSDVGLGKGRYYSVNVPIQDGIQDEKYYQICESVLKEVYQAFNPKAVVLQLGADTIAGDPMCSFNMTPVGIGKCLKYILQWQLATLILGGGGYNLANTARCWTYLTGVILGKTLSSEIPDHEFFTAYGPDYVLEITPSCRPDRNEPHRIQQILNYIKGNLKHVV
Experimental: as §1, §3, §4

[5] = target: T2, HDAC7 (Homo sapiens, UniProt Q8WUI4); assay: in vitro HDAC inhibition assay (fluorescence), HDAC7; format: biochemical; settings: HDAC7
T2 sequence (Q8WUI4 1-952): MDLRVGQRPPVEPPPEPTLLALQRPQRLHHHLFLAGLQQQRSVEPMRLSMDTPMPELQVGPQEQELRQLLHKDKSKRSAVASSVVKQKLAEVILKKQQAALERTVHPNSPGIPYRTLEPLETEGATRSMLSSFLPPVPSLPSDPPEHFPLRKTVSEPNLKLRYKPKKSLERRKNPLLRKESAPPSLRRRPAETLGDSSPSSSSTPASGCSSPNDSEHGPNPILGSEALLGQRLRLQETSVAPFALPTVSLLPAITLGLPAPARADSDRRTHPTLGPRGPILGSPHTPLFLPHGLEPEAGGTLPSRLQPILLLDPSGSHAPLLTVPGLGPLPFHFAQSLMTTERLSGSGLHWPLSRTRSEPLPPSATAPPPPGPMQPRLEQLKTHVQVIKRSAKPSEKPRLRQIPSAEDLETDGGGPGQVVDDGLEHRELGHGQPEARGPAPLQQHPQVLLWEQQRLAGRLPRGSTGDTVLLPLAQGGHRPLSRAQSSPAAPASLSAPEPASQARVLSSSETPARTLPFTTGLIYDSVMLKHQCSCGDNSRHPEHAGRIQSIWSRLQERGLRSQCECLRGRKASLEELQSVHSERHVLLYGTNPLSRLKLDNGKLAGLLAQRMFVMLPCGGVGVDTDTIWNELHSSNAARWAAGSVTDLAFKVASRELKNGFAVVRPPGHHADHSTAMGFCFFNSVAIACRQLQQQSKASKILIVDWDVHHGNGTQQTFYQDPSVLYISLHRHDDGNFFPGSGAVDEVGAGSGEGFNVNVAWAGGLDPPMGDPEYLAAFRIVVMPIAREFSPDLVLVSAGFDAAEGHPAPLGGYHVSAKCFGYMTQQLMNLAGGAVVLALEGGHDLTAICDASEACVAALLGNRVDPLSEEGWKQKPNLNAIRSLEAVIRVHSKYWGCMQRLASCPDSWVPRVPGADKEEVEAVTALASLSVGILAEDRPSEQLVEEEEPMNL
Experimental: as §1, §2

[6] = system: Histone 3 acetylation in peripheral blood mononuclear cells; assay: H3 acetylation in peripheral blood mononuclear cells of healthy donors, flow cytometry; format: cell-based, humans; settings: PBMC of healthy donors
Source text: Percentage of cells with H3 acetylation, as determined by flow cytometry, is shown.
Since H3 acetylation is a pharmacodynamic biomarker of Nstat activity, acetylation of H3 was examined in treated cells.

[7] = system: P3HR1 Burkitt's lymphoma cells; assay: Cell death (7AAD staining) of EBV infected cell line, Nstat 3 days then ganciclovir 3 days; format: cell-based; settings: FIG. 4
Experimental: All test conditions were run in triplicate. Cell death was measured by 7AAD staining.

Sequence of HDAC4 (P56524 whole entry): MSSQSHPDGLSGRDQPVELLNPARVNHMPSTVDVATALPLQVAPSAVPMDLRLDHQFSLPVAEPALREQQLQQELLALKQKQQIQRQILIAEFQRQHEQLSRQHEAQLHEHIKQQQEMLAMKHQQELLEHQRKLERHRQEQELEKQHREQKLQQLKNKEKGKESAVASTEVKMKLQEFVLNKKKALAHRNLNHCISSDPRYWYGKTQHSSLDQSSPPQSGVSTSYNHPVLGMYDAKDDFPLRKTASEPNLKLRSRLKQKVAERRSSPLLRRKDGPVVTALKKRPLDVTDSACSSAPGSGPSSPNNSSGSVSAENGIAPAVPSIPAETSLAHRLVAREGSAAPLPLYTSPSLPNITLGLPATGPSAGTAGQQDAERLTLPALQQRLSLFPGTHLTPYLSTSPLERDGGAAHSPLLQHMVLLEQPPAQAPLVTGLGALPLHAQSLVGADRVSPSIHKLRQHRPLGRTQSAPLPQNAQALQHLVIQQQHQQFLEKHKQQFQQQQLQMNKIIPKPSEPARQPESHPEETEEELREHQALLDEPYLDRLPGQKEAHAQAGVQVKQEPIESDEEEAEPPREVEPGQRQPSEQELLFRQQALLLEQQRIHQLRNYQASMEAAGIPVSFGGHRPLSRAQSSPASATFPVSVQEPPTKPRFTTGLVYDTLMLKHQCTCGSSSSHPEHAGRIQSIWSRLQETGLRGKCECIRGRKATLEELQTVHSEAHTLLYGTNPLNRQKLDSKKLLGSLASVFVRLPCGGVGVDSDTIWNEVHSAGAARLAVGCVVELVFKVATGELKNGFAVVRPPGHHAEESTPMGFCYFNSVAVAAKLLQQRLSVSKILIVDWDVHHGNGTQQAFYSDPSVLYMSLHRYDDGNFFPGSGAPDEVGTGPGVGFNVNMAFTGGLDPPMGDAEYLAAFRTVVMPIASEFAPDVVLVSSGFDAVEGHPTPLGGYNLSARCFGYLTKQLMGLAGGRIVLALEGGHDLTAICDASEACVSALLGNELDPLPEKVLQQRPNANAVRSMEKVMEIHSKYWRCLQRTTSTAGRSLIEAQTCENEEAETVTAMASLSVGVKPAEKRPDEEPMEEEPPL
Sequence of HDAC1 (Q13547 whole entry): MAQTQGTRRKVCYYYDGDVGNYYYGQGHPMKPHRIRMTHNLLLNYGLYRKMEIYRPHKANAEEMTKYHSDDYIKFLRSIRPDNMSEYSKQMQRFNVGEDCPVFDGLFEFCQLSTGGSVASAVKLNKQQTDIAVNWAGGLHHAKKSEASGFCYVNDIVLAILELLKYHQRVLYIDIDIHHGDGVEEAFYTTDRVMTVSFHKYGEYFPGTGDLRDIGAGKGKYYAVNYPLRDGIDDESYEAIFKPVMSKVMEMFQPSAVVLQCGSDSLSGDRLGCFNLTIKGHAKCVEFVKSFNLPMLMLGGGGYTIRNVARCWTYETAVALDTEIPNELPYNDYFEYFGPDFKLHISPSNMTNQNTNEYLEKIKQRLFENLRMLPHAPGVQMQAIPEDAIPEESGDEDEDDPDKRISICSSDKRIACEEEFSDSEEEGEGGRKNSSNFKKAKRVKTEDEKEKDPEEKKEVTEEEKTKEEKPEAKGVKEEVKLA
Sequence of HDAC3/NCOR2 (O15379 whole entry): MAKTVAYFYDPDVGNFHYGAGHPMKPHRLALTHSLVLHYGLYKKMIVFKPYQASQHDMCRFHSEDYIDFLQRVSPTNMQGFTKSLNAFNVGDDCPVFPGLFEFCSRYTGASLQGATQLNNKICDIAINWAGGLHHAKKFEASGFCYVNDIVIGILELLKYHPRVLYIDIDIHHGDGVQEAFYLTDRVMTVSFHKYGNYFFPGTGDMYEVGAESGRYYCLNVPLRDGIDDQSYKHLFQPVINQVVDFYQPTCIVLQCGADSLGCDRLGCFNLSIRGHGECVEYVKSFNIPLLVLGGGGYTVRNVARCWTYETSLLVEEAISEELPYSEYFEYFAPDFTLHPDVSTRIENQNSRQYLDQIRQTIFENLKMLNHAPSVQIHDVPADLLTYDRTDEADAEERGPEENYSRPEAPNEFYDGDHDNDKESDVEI
Sequence of HDAC3/NCOR2 (Q9Y618 395-489 partner limits assumed): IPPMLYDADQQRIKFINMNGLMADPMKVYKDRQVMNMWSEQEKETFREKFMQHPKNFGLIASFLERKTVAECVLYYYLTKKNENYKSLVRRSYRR

O=C(NO)c1cnc(N2CC3C(C2)C3NCc2ccc3cc(F)ccc3n2)nc1 (stereo not drawn) [Nstat, 2-(6-{[(6-Fluoroquinolin-2-yl)methyl]amino}-3-azabicyclo[3.1.0]hex-3-yl)-N-hydroxypyrimidine-5-carboxamide]
IC50 [1]: 3.6 nM
IC50 [2]: 1000 nM
IC50 [3]: 12 nM
IC50 [4]: 860 nM
IC50 [5]: 1600 nM
potency in inducing elevated levels of Histone 3 acetylation ([6]; even at a dose of 100 nM, FIG. 2): much more potent than entinostat
duration of effect on H3 acetylation (time-course) ([6]; even at doses down to 10 nM, FIG. 3): long-lasting
increase of cytotoxic activity when combined with Ganciclovir ([7]; Nstat 3 days, wash, ganciclovir 3 days): ~40%
increased cytotoxicity with ganciclovir after Nstat removal ([7]; after 3 days of washout): seen even after Nstat removal
